Source: patent US20040186166A1, “Cannabinoid analogs as peroxisome proliferator activated nuclear receptor gamma activators” (priority 2002, published 2004)

How the values were obtained:
[1] = cited from earlier work
[2] = biological target: T1, human PPARδ (Homo sapiens, UniProt Q03181); test: Gal4-dependent MH100-Luc reporter, human PPARδ; assay type: cell-based
T1 construct: The Gal4-hPPAR LBD constructs were obtained from GlaxoSmithKline; host or cells: HEK293
T1 sequence (Q03181 211-439 limits assumed): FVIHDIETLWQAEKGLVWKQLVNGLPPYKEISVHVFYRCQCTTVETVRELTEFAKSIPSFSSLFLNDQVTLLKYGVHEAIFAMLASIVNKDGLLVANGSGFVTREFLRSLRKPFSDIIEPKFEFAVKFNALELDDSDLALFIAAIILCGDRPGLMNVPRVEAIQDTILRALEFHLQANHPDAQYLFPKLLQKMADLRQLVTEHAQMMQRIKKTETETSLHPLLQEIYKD
Protocol: The pGEX-DRIP205 (527˜970) was obtained from the Sloan-Kettering Cancer Center. The Gal4-hPPAR LBD constructs were obtained from GlaxoSmithKline, Research Triangle Park, NC. The IL8-Luciferase reporter was obtained from Celgene, San Diego, Calif. The plasmids mPPARα, mPPARγ1, mPPARδ , and hRXRα were in the pCMX vector (Umesono et al., Cell 65:1255-1266, 1991).
For PPARγ activation assay, HEK293 cells were plated in 12-well cell culture plates and maintained in Dulbecco's modified Eagle's medium (DMEM) supplemented with 10% fetal bovine serum (FBS) at 37° C. under 5% CO2. […] The average normalized luciferase activity was determined via triplicate experiments. […]
To further confirm activation of PPARγ by AJA, and also to determine PPARγ species specificity, the ability of AJA to activate the chimeric Gal4-DBD/PPAR fusion proteins on a Gal4-dependent MH100-Luc reporter was assessed (FIG. 4A). The PPARs were expressed as Gal4 DBD fusion proteins, which bind to the UAS promoter containing 4 copies of a synthetic Gal4 binding site upstream of the minimal thymidine kinase (TK) promoter. […] Transfected cells were treated with increasing concentrations of AJA from 10-60 μM and the luciferase activities were determined in triplicate experiments. […]

[3] = system: 3T3 L1 fibroblasts; test: Adipocyte differentiation assay, Oil Red O staining; assay type: cell-based; conditions: 20 μM AJA, 10 days, 10 μg/ml insulin
Protocol: The adipocyte differentiation assay was performed as described by Mukherjee et. al. (Mol Endocrinol 14: 1425-33, 2000). The 3T3 L1 cells (American Type Culture Collection) were cultured in DMEM media supplemented with 10% calf serum. Two days after reaching confluence, cells were treated with AJA, GW347845, or vehicle (0.1% DMSO) in the presence of 10 μg/ml insulin every other day. After 10 days of treatment with AJA or 7 days with GW347845 at confluence, cells were fixed and stained with Oil Red O (Sigma). For RT-PCR, total cellular RNAs were isolated by TRIzol (Gibco). Reverse transcriptase polymerase chain reaction (RT-PCR) was performed using the superscript first-strand synthesis kit (Invitrogen). After first-strand cDNA was synthesized by use of oligo (dT), cDNA was amplified by PCR. […]
3T3 L1 fibroblasts cells were cultured in DMEM supplemented with 10% calf serum. […] The cells were treated for 10 days with AJA, or 7 days with GW347845, and lipid accumulation in cells was assessed by Oil Red O staining.

Q: For `CCCCCCC(C)(C)c1cc(O)c2c(c1)OC(C)(C)[C@@H]1CC=C(C(=O)O)C[C@@H]21` [AJA, dimethylheptyl-THC-11-oic acid], which drug dependence ([1]; in vivo) is on record?
A: did not exhibit drug dependence

Q: What about the mutagenesis ([1]; in vivo) of the same compound?
A: did not exhibit drug dependence or cause mutagenesis

Q: And the ulcerogenicity ([1]; therapeutically relevant doses)?
A: totally non-ulcerogenic

Q: What about the “activation of human PPARδ” value [2] of the same compound?
A: did not activate

Q: What about the “lipid accumulation, Oil Red O staining” value [3] of the same compound?
A: dramatic increase in lipid droplet staining
